Measured values published in PubChem BioAssay AID330 (DTP/NCI, 2004).
“And” between values parts separate entries of the source, which are not always exact repeats. Identical values can stand only once. Inconclusive results and toxic doses are left out. How the source made its calls: active means survival T/C of 150% or more; inactive means T/C below 125% in these data.

Tested on: P388 leukemia ip, CD2F1 mice, survival T/C
Experiment: NCI In Vivo Anticancer Drug Screen. Data for tumor model P388 Leukemia (intraperitoneal) in CD2F1 (CDF1) mice
Settings: endpoint: median survival time, higher = longer survival
Outline: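 Mice carrying the transplanted tumor received test compound or vehicle. Survival was recorded in each group, and the value is the treated-group measurement divided by that of the vehicle-treated control group.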

[1] = dose: 120.0 mg/kg/injection, schedule: Q01DX005 (ip), vehicle: saline with Tween-80
[2] = dose: 240.0 mg/kg/injection, schedule: Q01DX005 (ip), vehicle: saline with Tween-80
[3] = dose: 60.0 mg/kg/injection, schedule: Q01DX005 (ip), vehicle: saline with Tween-80
[4] = dose: 50.0 mg/kg/injection, schedule: Q01DX009 (ip), vehicle: saline with Tween-80
[5] = dose: 100.0 mg/kg/injection, schedule: Q01DX009 (ip), vehicle: saline with Tween-80
[6] = dose: 200.0 mg/kg/injection, schedule: Q01DX009 (ip), vehicle: saline with Tween-80
[7] = dose: 50.0 mg/kg/injection, schedule: Q01DX005 (ip), vehicle: saline
[8] = dose: 15.0 mg/kg/injection, schedule: Q01DX005 (ip), vehicle: saline with Tween-80
[9] = dose: 30.0 mg/kg/injection, schedule: Q01DX005 (ip), vehicle: saline with Tween-80
[10] = dose: 50.0 mg/kg/injection, schedule: Q01DX005 (ip), vehicle: saline with Tween-80
[11] = dose: 100.0 mg/kg/injection, schedule: Q01DX005 (ip), vehicle: saline with Tween-80
[12] = dose: 200.0 mg/kg/injection, schedule: Q01DX005 (ip), vehicle: saline with Tween-80
[13] = dose: 50.0 mg/kg/injection, schedule: Q01DX009 (ip), vehicle: Klucel (hydroxypropylcellulose) (HPC)
[14] = dose: 100.0 mg/kg/injection, schedule: Q01DX009 (ip), vehicle: Klucel (hydroxypropylcellulose) (HPC)
[15] = dose: 200.0 mg/kg/injection, schedule: Q01DX009 (ip), vehicle: Klucel (hydroxypropylcellulose) (HPC)

Measured: T/C

N=c1nc(-c2ccccc2)nc2[nH]c3c4cccc5cccc(c3nc12)c54
inactive: dose: 50.0 mg/kg/injection, schedule: Q01DX005 (ip), vehicle: Klucel + Tween-80 90 % of control | dose: 100.0 mg/kg/injection, schedule: Q01DX005 (ip), vehicle: Klucel + Tween-80 99 % of control | dose: 200.0 mg/kg/injection, schedule: Q01DX005 (ip), vehicle: Klucel + Tween-80 99 % of control

CCCCN(CCCC)S(=O)(=O)N1CCCCC1
inactive: dose: 50.0 mg/kg/injection, schedule: Q04DX002 (ip), vehicle: saline 105 % of control | dose: 100.0 mg/kg/injection, schedule: Q04DX002 (ip), vehicle: saline 98 % of control | dose: 200.0 mg/kg/injection, schedule: Q04DX002 (ip), vehicle: saline 96 % of control | dose: 400.0 mg/kg/injection, schedule: Q04DX002 (ip), vehicle: saline 100 % of control

Cc1cnc(N/N=C/c2c(CO)cnc(C)c2O)s1
inactive: dose: 7.5 mg/kg/injection, schedule: Q01DX005 (ip), vehicle: Klucel (hydroxypropylcellulose) (HPC) 99 % of control | dose: 15.0 mg/kg/injection, schedule: Q01DX005 (ip), vehicle: Klucel (hydroxypropylcellulose) (HPC) 94 % of control | dose: 30.0 mg/kg/injection, schedule: Q01DX005 (ip), vehicle: Klucel (hydroxypropylcellulose) (HPC) 86 % of control | [1] 93 % of control | [2] 112 % of control

Cn1ncc2c(=O)[nH]c(-c3ccccc3)nc21
inactive: [3] 105 % of control | [1] 96 % of control | [2] 105 % of control

Cc1cc(O)c(C(c2cccnc2)c2c(O)cc(C)[nH]c2=O)c(=O)[nH]1
inactive: [4] 104 % of control | [5] 98 % of control | [6] 99 % of control

COC(=O)/C1=C/N(C=O)CCCC2OC12C(=O)OC (stereo not drawn)
inactive: dose: 100.0 mg/kg/injection, schedule: Q01DX001 (ip), vehicle: Klucel (hydroxypropylcellulose) (HPC) 100 % of control | dose: 200.0 mg/kg/injection, schedule: Q01DX001 (ip), vehicle: Klucel (hydroxypropylcellulose) (HPC) 100 % of control

CCC1(CCC(C)C)C(=O)N(CCCl)C(=O)N(CCCl)C1=O
inactive: [4] 100 % of control | [5] 105 % of control | [6] 96 % of control

CN1c2ccc(C=O)cc2Sc2cc(C=O)ccc21
inactive: [3] 91 % of control | [1] 91 % of control | [2] 90 % of control

O=C(NC(=S)Nc1ncn[nH]1)c1ccc(Cl)c(Cl)c1
inactive: dose: 12.5 mg/kg/injection, schedule: Q01DX009 (ip), vehicle: saline with Tween-80 104 % of control | dose: 25.0 mg/kg/injection, schedule: Q01DX009 (ip), vehicle: saline with Tween-80 100 % of control | [4] 95 % of control | [5] 91 % of control | [6] 92 % of control

CC1(O)CCC(O)CC1CC[N+](C)(C)[O-] (stereo not drawn)
inactive: [7] 102 % of control | dose: 100.0 mg/kg/injection, schedule: Q01DX005 (ip), vehicle: saline 99 % of control | dose: 200.0 mg/kg/injection, schedule: Q01DX005 (ip), vehicle: saline 102 % of control

O=C(Nc1cccc2ccccc12)OCC1CC1
inactive: dose: 50.0 mg/kg/injection, schedule: Q04DX003 (ip), vehicle: saline with Tween-80 98 % of control | dose: 100.0 mg/kg/injection, schedule: Q04DX003 (ip), vehicle: saline with Tween-80 102 % of control | dose: 200.0 mg/kg/injection, schedule: Q04DX003 (ip), vehicle: saline with Tween-80 100 % of control | dose: 400.0 mg/kg/injection, schedule: Q04DX003 (ip), vehicle: saline with Tween-80 100 % of control

COc1ccc(N=N/N=c2\sc3cc(OC)ccc3n2C)cc1
inactive: dose: 7.5 mg/kg/injection, schedule: Q01DX005 (ip), vehicle: saline with Tween-80 113 % of control | [8] 104 % of control | [9] 112 % of control and 117 % of control | [3] 104 % of control

COC(=O)C(=C(C)C)S(=O)c1ccccc1 (stereo not drawn)
inactive: dose: 12.5 mg/kg/injection, schedule: Q01DX005 (ip), vehicle: saline 102 % of control | dose: 25.0 mg/kg/injection, schedule: Q01DX005 (ip), vehicle: saline 103 % of control | [7] 100 % of control and 104 % of control

CC(C)(C)C(=O)Nc1ccc2c(c1)C(=O)c1ccccc1C2=O
inactive: [10] 100 % of control | [11] 87 % of control | [12] 89 % of control

O=[N+]([O-])c1ccc(Cl)cc1C(Nc1nncs1)Nc1nncs1
inactive: dose: 60.0 mg/kg/injection, schedule: Q01DX005 (ip), vehicle: Klucel (hydroxypropylcellulose) (HPC) 107 % of control | dose: 120.0 mg/kg/injection, schedule: Q01DX005 (ip), vehicle: Klucel (hydroxypropylcellulose) (HPC) 106 % of control

O=C(CCCCl)CC(O)(C(F)(F)Cl)C(F)(F)Cl
inactive: dose: 25.0 mg/kg/injection, schedule: Q04DX003 (ip), vehicle: saline 100 % of control | dose: 50.0 mg/kg/injection, schedule: Q04DX003 (ip), vehicle: saline 100 % of control | dose: 100.0 mg/kg/injection, schedule: Q04DX003 (ip), vehicle: saline 95 % of control

COc1cc(C)c(OC)c(CC=C(C)CC(=O)C[C@@]2(C)CCC[C@@]2(C)C(=O)CCC(C)(C)O)c1 (mixture of isomers)
inactive: dose: 25.0 mg/kg/injection, schedule: Q01DX005 (ip), vehicle: saline with Tween-80 93 % of control | [10] 91 % of control | [11] 95 % of control

O=C(Nc1ccc(Cl)cc1)N1c2ccccc2SC1c1ccco1 (stereo not drawn)
inactive: [10] 89 % of control | [11] 88 % of control | [12] 87 % of control

Cc1ccc2c(c1)sc1n[nH]c(=S)n12
inactive: [13] 100 % of control | [14] 100 % of control | [15] 100 % of control

O=C(/C=C/c1c[nH]c2ccccc12)c1ccc([N+](=O)[O-])cc1
inactive: [8] 100 % of control | [9] 86 % of control | [3] 97 % of control

CC(C)=CCc1cc(C2COc3cc4c(c(O)c3C2=O)C=CC(C)(C)O4)c(O)cc1O (stereo not drawn)
inactive: dose: 8.0 mg/kg/injection, schedule: Q01DX009 (ip), vehicle: Klucel (hydroxypropylcellulose) (HPC) 98 % of control | dose: 16.0 mg/kg/injection, schedule: Q01DX009 (ip), vehicle: Klucel (hydroxypropylcellulose) (HPC) 101 % of control | dose: 32.0 mg/kg/injection, schedule: Q01DX009 (ip), vehicle: Klucel (hydroxypropylcellulose) (HPC) 100 % of control | dose: 64.0 mg/kg/injection, schedule: Q01DX009 (ip), vehicle: Klucel (hydroxypropylcellulose) (HPC) 98 % of control

Cc1ccc(N2C(=O)CC3(CCCCC3)C2=O)cc1C
inactive: [13] 106 % of control | [14] 105 % of control | [15] 97 % of control

O=C(NN1C(=O)C2=Cc3ccccc3OC2=NC1c1ccccc1O)c1ccncc1 (stereo not drawn)
inactive: dose: 100.0 mg/kg/injection, schedule: Q01DX001 (ip), vehicle: saline 96 % of control | dose: 200.0 mg/kg/injection, schedule: Q01DX001 (ip), vehicle: saline 98 % of control | dose: 400.0 mg/kg/injection, schedule: Q01DX001 (ip), vehicle: saline 94 % of control

N#C/C(=C\c1c(Cl)cccc1Cl)c1nc(-c2ccc(Cl)cc2)cs1
inactive: dose: 50.0 mg/kg/injection, schedule: Q01DX009 (ip), vehicle: saline 92 % of control | dose: 100.0 mg/kg/injection, schedule: Q01DX009 (ip), vehicle: saline 92 % of control | dose: 200.0 mg/kg/injection, schedule: Q01DX009 (ip), vehicle: saline 105 % of control
